{"source": "patent US20210338681A1", "about": "“COMBINATION THERAPIES” (SECURA BIO, INC., priority 2018, published 2021)", "key": {"[1]": {"system": "human macrophages", "assay": "Phagocytosis of CTV-labelled DLD-1 and Raji cells by human monocyte-derived macrophages, flow cytometry-based assay (Example 1)", "format": "cell-based", "conditions": "FIG. 1", "procedure": "PBMC were isolated using a density gradient from healthy donor blood samples. CD14+ monocytes were then separated using magnetic selection and differentiated into MO macrophages for 6 days in the presence of M-CSF and 3000 nM of duvelisib or vehicle (DMSO). Two cell lines positive for surface expression of CD47, DLD-1 (ATCC® CCL-221™) and Raji cells (ATCC® CCL-86™), were labelled with cell trace violet (CTV). These were then offered to the macrophage cultures in the presence of duvelisib or vehicle control for 4 hours to allow phagocytosis to occur. For the part of the assay where a CD47 blocking antibody and an opsonizing antibody were used, CD47 blocking antibody at 1 μg/ml (clone B6H12) and rituximab (for Raji cells) or cetuximab (for DLD-1 cells) at 1 μg/ml were added during the 4 hours co-culture. The effect of duvelisib on the capacity of macrophages to phagocytose target cells was determined in a flow cytometry-based assay."}, "[2]": {"system": "human macrophages", "assay": "Phagocytosis of CTV-labelled Raji cells by human monocyte-derived macrophages with anti-CD47 clone 5F9, flow cytometry-based assay (Example 2)", "format": "cell-based", "conditions": "3000 nM duvelisib during last 3 days of differentiation; CD47 blocking antibody clone 5F9 300 ng/ml, 2 hours; compared to duvelisib or anti-CD47 alone; FIG. 2", "procedure": "PBMC were isolated using a density gradient from healthy donor blood samples. CD14+ monocytes were then separated using magnetic selection and differentiated into MO macrophages for 6 days in the presence of M-CSF. Duvelisib (3000 nM) or vehicle (DMSO) were added during the last 3 days of differentiation. Raji cells (ATCC® CCL-86™), which are positive for surface expression of CD47, were labelled with cell trace violet (CTV). These cells were then offered to the macrophage cultures in the presence of CD47 blocking antibody at 300 ng/ml (clone 5F9) for 2 hours to allow phagocytosis to occur. The effect of duvelisib on the capacity of macrophages to phagocytose target cells was determined in a flow cytometry-based assay."}}, "note": "“Also recorded” adds a separate entry of the source."}
{"smiles": "C[C@H](Nc1ncnc2[nH]cnc12)c1cc2cccc(Cl)c2c(=O)n1-c1ccccc1", "note": "[duvelisib, (S)-3-(1-((9H-purin-6-yl)amino)ethyl)-8-chloro-2-phenylisoquinolin-1(2H)-one]", "values": [{"measurement": "phagocytosis by human macrophages, duvelisib as a single agent", "setting": "[1]; 3000 nM duvelisib vs vehicle (DMSO) during 6 days differentiation with M-CSF and 4 hours co-culture, target cells DLD-1 and Raji, two representative donors per condition", "result": "increases phagocytosis; also recorded: increasing phagocytosis"}, {"measurement": "phagocytosis by human macrophages, duvelisib in combination with anti-CD47 (clone B6H12) and an opsonizing antibody", "setting": "[1]; 3000 nM duvelisib, CD47 blocking antibody clone B6H12 1 μg/ml plus rituximab (Raji cells) or cetuximab (DLD-1 cells) 1 μg/ml during 4 hours co-culture", "result": "increases phagocytosis; also recorded: increasing phagocytosis"}, {"measurement": "phagocytosis of Raji Burkitt's lymphoma cells by human macrophages, duvelisib in combination with anti-CD47 (clone 5F9)", "setting": "[2]", "result": "enhances phagocytosis; also recorded: increasing phagocytosis"}]}
